The target in this assay is 2-acylglycerol O-acyltransferase 2 (Homo sapiens, UniProt Q3SYC2). Description: Inhibitory Activity. As to the method:
Solutions of the compounds of the present invention in DMSO were each aliquoted into 0.2-μL portions in a 384-well polystyrene microplate produced by Corning Incorporated, and 5 μL of an enzyme solution prepared with an assay buffer (100 mmol/L phosphate buffer (pH 7.4) containing 2 mmol/L DTT) and 5 μL of a substrate solution (100 mmol/L phosphate buffer (pH 7.4), 30 μmol/L 2-Oleoylglycerol, 10 μmol/L Oleoyl-CoA) were added thereto, and the resultant was stirred and centrifuged, and incubated in a moist chamber at room temperature for 1 hour. After enzymatic reaction, 50 μL of a quenching solution (containing 0.2 μmol/L Diolein-d5, 0.4% formic acid, and 50% isopropanol) containing Internal Standard (IS) was added to terminate the reaction, and the resultant was sealed in a plate produced by Shimadzu GLC Ltd., and then stirred and centrifuged, and measurement was performed by using an electrospray ionization method with a RapidFire360 and Agilent 6550 Q-TOF mass spectrometer. Diolein as a reaction product (P) of 2-Oleoylglycerol as the substrate and an ammonium adduct ion of the IS were detected, and the peak intensity ratio, P/IS, was calculated from the peak heights to evaluate the inhibitory activity. Inhibitory activities with/without addition of enzyme were defined as Control (+)/Control (−), respectively, and the respective % inhibitions were defined as 0% inhibition and 100% inhibition. The inhibitory activity was calculated from formula below with TIBCO Spotfire (produced by TIBCO Software Inc.):Inhibitory activity (%)=[1−{Sample−Control(−)}/{Control(+)−Control(−)}]*100where Sample indicates a peak intensity ratio: P/IS, when the compound of the present invention was added.

The structures appear in SMILES notation. pIC50: −log10 of the molar value.

Chain of 2-acylglycerol O-acyltransferase 2 (Q3SYC2 whole entry): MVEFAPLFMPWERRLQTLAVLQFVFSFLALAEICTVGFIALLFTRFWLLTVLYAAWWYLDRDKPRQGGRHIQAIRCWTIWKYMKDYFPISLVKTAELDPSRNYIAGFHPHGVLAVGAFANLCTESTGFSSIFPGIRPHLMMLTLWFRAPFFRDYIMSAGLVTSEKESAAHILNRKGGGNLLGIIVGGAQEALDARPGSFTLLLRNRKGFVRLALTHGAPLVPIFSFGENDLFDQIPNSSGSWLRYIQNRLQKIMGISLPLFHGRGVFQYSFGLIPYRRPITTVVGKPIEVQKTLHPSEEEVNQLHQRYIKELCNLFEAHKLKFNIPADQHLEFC

On to `COc1ccc(-n2nc3c(c2NC(=O)CS(C)(=O)=O)C(=O)N[C@]2(CCc4cc(OCC(F)(F)F)ccc42)C3)cc1` [US11198695, Example I-268], for which the pIC50 (usually the negative decadic logarithm of the IC50, by convention in mol/L) is 7.59.
The value for `CS(=N)(=O)CC(=O)Nc1c2c(nn1-c1ccc(C(F)F)nn1)C[C@]1(CCc3cc(OCC(F)(F)F)ccc31)NC2=O` (stereo partly drawn) [US11198695, Example II-281] was more than 9.00; that for `C#Cc1ccc(-n2nc3c(c2C(=O)NS(=O)(=O)C2CC2)C(=O)N[C@@]2(CCc4cc(OCC(F)(F)F)ccc42)C3)nc1` [US11198695, Example II-201] was 7.92.

These data come from BindingDB's records for patent US11198695 (SHIONOGI & CO., LTD., 2021).
